According to paper PMC9747717, “A novel small molecule inhibitor of human Drp1” (Scientific Reports, 2022):

Legend:
[1] = Dynamic light scattering (DLS) compound aggregation threshold; assay type: physicochemical
Protocol: Identification of compound aggregation threshold was performed using DLS Zetasizer Nano ZS (Malvern Pananalytical, Worcestershire, UK). 100 µL of samples were measured in low-volume plastic micro cuvettes (BrandTech Scientific, CT, USA) at 25 °C using default size measurement settings. […] Mdivi-1 and DRP1i27 were serially diluted three-fold from 500 µM until the volume distribution of particle size was similar to that of the DMSO control. To specifically determine aggregation threshold, further dilution was carried out between concentrations where aggregation was first observed.

[2] = tested on: HL-1 cells; experiment: Simulated ischaemia-reperfusion injury, cell death; assay type: cell-based, Murine; conditions: 50 µM during simulated ischaemia-reperfusion; DMSO 29.55 ± 5.45%
Protocol: (§1) HL-1 cells were plated in 24-well plate pre-coated with 5 μg/mL human fibronectin (Merck Millipore, MA, USA) in 0.02% porcine gelatin solution (Sigma-Aldrich, MA, USA). Cells were maintained in Claycomb media (Sigma-Aldrich) supplemented with 0.1 mM (±)-norepinephrine (+)-bitartrate salt (Sigma-Aldrich), 2 mM GlutaMAX (Thermo Fisher Scientific, MA, USA), 100 μg/mL penicillin/streptomycin (Thermo Fisher Scientific) and 10% non-heat inactivated foetal bovine serum (FBS) (Bovogen Biologicals, Victoria, Australia). The simulated ischaemia–reperfusion injury was performed as described in Rosdah et al.[25]. To simulate ischaemia, cells were cultured in ischaemic buffer (25 mM NaHEPES, 1 mM KH2PO4, 10 mM NaHCO3, 74 mM NaCl, 1.2 mM MgCl2.6H2O, 16 mM KCl, 1.2 mM CaCl2, 10 mM 2-deoxy-d-glucose) and hypoxia (< 0.1% O2) was induced in an airtight GENBox anaerobic chamber containing a Genbox Anaer generator sachet (BioMérieux, Marcy l’Etoile, France) at 37 °C. […] Cell death was determined by staining with 1 μg/mL propidium iodide and 3 μg/mL Hoechst 33258. The number of dead cells (propidium iodide positive) was counted and expressed as a percentage over total number of cells (Hoechst 33258 positive). At least 100 cells were counted per group for each independent experiment.

[3] = tested on: human iPSC-derived cardiomyocytes; experiment: Doxorubicin-induced cardiomyocyte injury, LDH release; assay type: cell-based; conditions: DRP1i27 50 µM in combination with doxorubicin 5 µM, 2 days
Protocol: Cardiomyocytes were derived from human induced pluripotent stem cells (iPSCs, CERA007c6 cell line) as previously described with modifications[26],[27]. Briefly, human iPSCs were seeded onto Matrigel (Corning) coated plates at a density of 1.25 × 10^5 cells/cm^2 in TeSR-E8 medium supplemented with 10 μM Y−27632 (Abcam). After 48 h (cells ~ 90% confluent) (day 0), medium was replaced with RPMI-1640 basal medium (Thermo Fisher Scientific) containing B-27 without insulin supplement (Thermo Fisher Scientific), growth factor reduced Matrigel (1:60 dilution) and 10 μM CHIR99021 (Cayman Chemical). At day 1, medium was replaced with RPMI 1640 basal medium containing B-27 without insulin supplement. […]
Enriched cardiomyocytes were replated onto Matrigel-coated 48-well plates at a cell density of 5 × 10^4 cells/cm^2 for 2 days. […] LDH levels in the conditioned media were assessed using a colorimetric CyQUANT LDH Cytotoxicity Assay Kit (Thermo Fisher Scientific) according to manufacturer’s protocol. […] Following the incubation at room temperature for 30 min in the dark, 50 μL of Stop Solution was added and absorbance was measured at 490 nm and 680 nm on a microplate spectrophotometer (Bio-Rad). All readings were then corrected for the background signal from the culture media and expressed as fold change.

[4] = tested on: Drp1 KO MEFs; experiment: Mitochondrial morphology analysis in Drp1 KO MEF; assay type: cell-based, mouse; conditions: Drp1 KO MEFs, 5, 10 or 50 µM
Protocol: Human foreskin fibroblasts and Drp1 wildtype and KO MEF (kindly provided by Professor Hiromi Sesaki, Johns Hopkins University, USA)[28],[29] were transduced with pAS2.EYFP.puro lentiviruses (RNAiCore, Academia Sinica, Taiwan) carrying the mitochondrial-targeted EGFP sequence as described in Kalkhoran et al.[30]. Cells were then treated with DRP1i27 (5, 10 or 50 µM) or 0.1% DMSO vehicle control for 24 h.
(§2) Mitochondrial morphology in HL-1 cells were visualised by immunostaining of mitochondrial Hsp60 antibody (Abcam, MA, USA). Images were acquired using Olympus BX60 fluorescence microscope at 600 × magnification and analysed using Fiji imaging software (ImageJ v1.53c). Cells were categorised into predominantly (> 50%) having fused or fragmented mitochondria. At least 100 cells were analysed for each treatment group.

[5] = tested on: HL-1 cells; experiment: Mitochondrial morphology in HL-1 cells under simulated ischaemia-reperfusion injury; assay type: cell-based, Murine; conditions: 50 µM, DMSO 63.14 ± 8.12%
Protocol: as §1, with “al.[25].” for “al.[25]. To simulate ischaemia, cells were cultured in ischaemic buffer (25 mM NaHEPES, 1 mM KH2PO4, 10 mM NaHCO3, 74 mM NaCl, 1.2 mM MgCl2.6H2O, 16 mM KCl, 1.2 mM CaCl2, 10 mM 2-deoxy-d-glucose) and hypoxia (< 0.1% O2) was induced in an airtight GENBox anaerobic chamber containing a Genbox Anaer generator sachet (BioMérieux, Marcy l’Etoile, France) at 37 °C.”
as §2, with “Cells were categorised into predominantly (> 50%) having fused or fragmented mitochondria.” left out

Question: For `Cc1nc[nH]c1CN1C[C@@H]2CC[C@H](C1)N(Cc1ccc(-c3cc[nH]n3)o1)C2` [DRP1i27], which aggregation threshold ([1]; PBS, 2% DMSO) is on record?
Answer: 130 µM

Question: And the aggregation threshold ([1]; PBS, 5% DMSO)?
Answer: 350 µM

Question: What about the aggregation threshold ([1]; with 0.05% Tween-20, DMSO content not specified) of the same molecule?
Answer: at least 500 µM

Question: What about the cell death [2] of the same molecule?
Answer: 15.17 ± 3.67%

Question: What about the LDH release [3] of the same molecule?
Answer: 3.13 ± 0.16 fold change

Question: What about the “cellular networks of mitochondria” value [4] of the same molecule?
Answer: no significant effect

Question: And the “percentage of cells with fragmented mitochondria” value [5]?
Answer: 36.62 ± 7.37%
